In brackets after ≈: the same amount, converted by molar mass. Where two headings read alike, the source gives them in different places.

Holding throughout (format): cell-based
Data set [1] deals with non-replicating stages of M. tuberculosis. The data set can be described thus: MIC against non-replicating M. tuberculosis. To be noted: Mycobacterium tuberculosis, read-out: MIC Non-replicating strain.
The test system of data set [2] is M. tuberculosis H37Rv (ATCC 27294). The data set can be described thus: MIC by broth dilution against M. tuberculosis H37Rv (replicating). Particulars: Mycobacterium tuberculosis. For orientation: Dilution methods test growth across graded concentrations, often in twofold steps.
Data set [3] relates to macrophage J774 cells line. The data set can be described thus: Cytotoxicity assay (MTT) in macrophage J774 cells. Particulars: macrophage J774, 24 hrs incubation, tested at 40 μg/ml. Here is the method: The study was carried out using macrophage J774 cells line (ATCC-USA). Cells were grown in Rosewell Park Memorial Institute Medium (RPMI) containing 10% fetal calf serum (FCS) and supplemented with 75 mg/liter penicillin, 100 mg/liter streptomycin, 110 mg/liter Sodium pyruvate, 2.38 gm/liter HEPES, 0.05 mM 2 β-mercaptoethanol, and 2 gm/liter NaHCO3, in a humidified atmosphere in 5% CO2 at 37° C., and were sub-cultured at 1:4 ratio once a week.
Cells were plated at a density of 3×10^4 cells/cm^2 and maintained in culture medium for 12 hours. Cells were seeded onto 96-well flat bottom plates and FCS was reduced to 5% for the experiment. Stock solutions of compounds 9 to 37 were prepared fresh to avoid oxidation. Cells were incubated with the compounds (40 μg/ml) for 24 hrs.
After the completion of incubation, the medium was removed and cell viability was evaluated by assaying for the ability of functional mitochondria to catalyze the reduction of 3-(4,5-dimethylthiazol-2-yl)-2,5-diphenyltetrazolium bromide (MTT) to form formazan salt by mitochondrial dehydrogenases, and determined by Elisa reader at 450 nm (Multiskan Spectrum; Thermo Electron Corporation, USA). Percentage cytotoxicity was calculated with respect to the untreated cells.

[4] abbreviates: 504 h, broth dilution, 37° C. for 3-weeks, read visually, replicating stage, read-out: MIC M. tb H37Rv.

`C[C@]1(Cn2cc(CN3CCOCC3)nn2)Cn2cc([N+](=O)[O-])nc2O1` [I22, (R)-2-Methyl-2-((4-(morpholinomethyl)-1H-1,2,3-triazol-1-yl)methyl)-6-nitro-2,3-dihydroimidazo[2,1-b]oxazole]: the MIC (commonly the lowest concentration that inhibits growth of the organism) in data set [1] turned out to be 1 µg/mL (≈ 2.86 µM); in data set [2] (setting [4]) it was 2 µg/mL (≈ 5.72 µM). Besides, the Cytotoxicity in data set [3] is more than 40 µg/mL.

Consider `Cc1ccccc1OCc1cn(C[C@@]2(C)Cn3cc([N+](=O)[O-])nc3O2)nn1` [I14, (R)-2-Methyl-6-nitro-2-((4-((o-tolyloxy)methyl)-1H-1,2,3-triazol-1-yl)methyl)-2,3-dihydroimidazo[2,1-b]oxazole], for which the MIC in data set [1] is 2 µg/mL (≈ 5.4 µM); in data set [2] (setting [4]), 0.5 µg/mL (≈ 1.35 µM); in data set [2] (read-out: MIC value) it was less than 1 µg/mL. The Cytotoxicity in data set [3] is more than 40 µg/mL.

With `C[C@]1(Cn2cc(COc3ccccc3F)nn2)Cn2cc([N+](=O)[O-])nc2O1` [I17, (R)-2-((4-((2-Fluorophenoxy)methyl)-1H-1,2,3-triazol-1-yl)methyl)-2-methyl-6-nitro-2,3-dihydroimidazo[2,1-b]oxazole], the MIC was 0.5 µg/mL (≈ 1.34 µM) in data set [1], 0.25 µg/mL (≈ 0.668 µM) in data set [2] (setting [4]) and less than 1 µg/mL in data set [2] (read-out: MIC value). In addition, the Cytotoxicity in data set [3] was more than 40 µg/mL.

`CCCCCc1cn(C[C@@]2(C)Cn3cc([N+](=O)[O-])nc3O2)nn1` [I7, (R)-2-[(4-Pentyl-1H-1,2,3-triazol-1-yl)methyl]-2,3-dihydro-2-methyl-6-nitroimidazo[2,1-b]oxazole]: the figures for the MIC in data set [1] and in data set [2] (setting [4]) were 4 µg/mL (≈ 12.5 µM) and 2 µg/mL (≈ 6.24 µM), respectively. The Cytotoxicity in data set [3] is more than 40 µg/mL.

With `CC(C)c1ccc(OCc2cn(C[C@@]3(C)Cn4cc([N+](=O)[O-])nc4O3)nn2)cc1` [I18, (R)-2-((4-((4-Isopropylphenoxy)methyl)-1H-1,2,3-triazol-1-yl)methyl)-2-methyl-6-nitro-2,3-dihydroimidazo[2,1-b]oxazole], the MIC in data set [1] was 1 µg/mL (≈ 2.51 µM); in data set [2] (setting [4]) it was 0.5 µg/mL (≈ 1.25 µM); in data set [2] (read-out: MIC value), less than 1 µg/mL. The molecule also registered a Cytotoxicity in data set [3] of more than 40 µg/mL.

For `Cc1ccc(OCc2cn(C[C@@]3(C)Cn4cc([N+](=O)[O-])nc4O3)nn2)cc1` [I12, (R)-2-Methyl-6-nitro-2-((4-((p-tolyloxy)methyl)-1H-1,2,3-triazol-1-yl)methyl)-2,3-dihydroimidazo[2,1-b]oxazole], the results for the MIC in data set [1] and in data set [2] (setting [4]) were 2 µg/mL (≈ 5.4 µM) and 1 µg/mL (≈ 2.7 µM), respectively. The molecule also gave a Cytotoxicity in data set [3] of more than 40 µg/mL.

Turning to `C[C@]1(Cn2cc(COc3cccc(Cl)c3)nn2)Cn2cc([N+](=O)[O-])nc2O1` [I10, (R)-2-((4-((3-Chlorophenoxy)methyl)-1H-1,2,3-triazol-1-yl)methyl)-2-methyl-6-nitro-2,3-dihydroimidazo[2,1-b]oxazole], the figures for the MIC in data set [1], in data set [2] (setting [4]) and in data set [2] (read-out: MIC value) were 1 µg/mL (≈ 2.56 µM), 0.5 µg/mL (≈ 1.28 µM) and less than 1 µg/mL, respectively. Further, the Cytotoxicity in data set [3] is more than 40 µg/mL.

Consider `C[C@]1(Cn2cc(-c3ccc(C(F)(F)F)cc3)nn2)Cn2cc([N+](=O)[O-])nc2O1` [I2, (R)-2-Methyl-6-nitro-2-((4-(4-(trifluoromethyl)phenyl)-1H-1,2,3-triazol-1-yl)methyl)-2,3-dihydroimidazo[2,1-b]oxazole], for which the values for the MIC in data set [1] and in data set [2] (setting [4]) were 8 µg/mL (≈ 20.3 µM) and 2 µg/mL (≈ 5.07 µM), respectively. The Cytotoxicity in data set [3] is more than 40 µg/mL.

Turning to `Cc1cc(-c2cn(C[C@@]3(C)Cn4cc([N+](=O)[O-])nc4O3)nn2)ccc1F` [I4, (R)-2-((4-(4-Fluoro-3-methylphenyl)-1H-1,2,3-triazol-1-yl)methyl)-2-methyl-6-nitro-2,3-dihydroimidazo[2,1-b]oxazole], the results for the MIC in data set [1] and in data set [2] (setting [4]) were 4 µg/mL (≈ 11.2 µM) and 2 µg/mL (≈ 5.58 µM), respectively. Moreover, the Cytotoxicity in data set [3] is more than 40 µg/mL.

Consider `C[C@]1(Cn2cc(-c3ccc(OC(F)(F)F)cc3)nn2)Cn2cc([N+](=O)[O-])nc2O1` [I1, (R)-2-Methyl-6-nitro-2-((4-(4-(trifluoromethoxy)phenyl)-1H-1,2,3-triazol-1-yl)methyl)-2,3-dihydroimidazo[2,1-b]oxazole], for which the MIC was determined as 4 µg/mL (≈ 9.75 µM) in data set [1] and 2 µg/mL (≈ 4.87 µM) in data set [2] (setting [4]). Besides, the Cytotoxicity in data set [3] is more than 40 µg/mL.

On to `C[C@]1(Cn2cc(COc3ccccn3)nn2)Cn2cc([N+](=O)[O-])nc2O1` [I19, (R)-2-Methyl-6-nitro-2-((4-((pyridin-2-yloxy)methyl)-1H-1,2,3-triazol-1-yl)methyl)-2,3-dihydroimidazo[2,1-b]oxazole], for which the MIC in data set [1] stood at 2 µg/mL (≈ 5.6 µM); in data set [2] (setting [4]) it was 1 µg/mL (≈ 2.8 µM). The molecule further yielded a Cytotoxicity in data set [3] of more than 40 µg/mL.

On to `Cc1ccc(OCCc2cn(C[C@@]3(C)Cn4cc([N+](=O)[O-])nc4O3)nn2)cc1` [I21, (R)-2-Methyl-6-nitro-2-((4-(2-(p-tolyloxy)ethyl)-1H-1,2,3-triazol-1-yl)methyl)-2,3-dihydroimidazo[2,1-b]oxazole], for which the MIC is 0.25 µg/mL (≈ 0.65 µM) in data set [1], 0.25 µg/mL (≈ 0.65 µM) in data set [2] (setting [4]) and less than 1 µg/mL in data set [2] (read-out: MIC value). Moreover, the Cytotoxicity in data set [3] was more than 40 µg/mL.

For `C[C@]1(Cn2cc(COc3cccc(F)c3)nn2)Cn2cc([N+](=O)[O-])nc2O1` [I16, (R)-2-((4-((3-Fluorophenoxy)methyl)-1H-1,2,3-triazol-1-yl)methyl)-2-methyl-6-nitro-2,3-dihydroimidazo[2,1-b]oxazole], the values for the MIC in data set [1] and in data set [2] (setting [4]) were 2 µg/mL (≈ 5.34 µM) and 1 µg/mL (≈ 2.67 µM), respectively. Further, in data set [3], the Cytotoxicity was more than 40 µg/mL.

Turning to `C[C@]1(Cn2cc(COc3ccc(OC(F)(F)F)cc3)nn2)Cn2cc([N+](=O)[O-])nc2O1` [I8, (R)-2-Methyl-6-nitro-2-((4-((4-(trifluoromethoxy)phenoxy)methyl)-1H-1,2,3-triazol-1-yl)methyl)-2,3-dihydroimidazo[2,1-b]oxazole], the MIC in data set [1] was 4 µg/mL (≈ 9.08 µM); in data set [2] (setting [4]), 2 µg/mL (≈ 4.54 µM). Further, in data set [3], the Cytotoxicity was more than 40 µg/mL.

On to `C[C@]1(Cn2cc(-c3ccc(Oc4ccccc4)cc3)nn2)Cn2cc([N+](=O)[O-])nc2O1` [I6, (R)-2-Methyl-6-nitro-2-((4-(4-phenoxyphenyl)-1H-1,2,3-triazol-1-yl)methyl)-2,3-dihydroimidazo[2,1-b]oxazole], for which the MIC in data set [1] and in data set [2] (setting [4]) was 2 µg/mL (≈ 4.78 µM) in each case. In data set [3], this molecule gave a Cytotoxicity of more than 40 µg/mL.

As for `Cc1ccc(SCc2cn(C[C@@]3(C)Cn4cc([N+](=O)[O-])nc4O3)nn2)cc1` [I20, (R)-2-Methyl-6-nitro-2-((4-((p-tolylthio)methyl)-1H-1,2,3-triazol-1-yl)methyl)-2,3-dihydroimidazo[2,1-b]oxazole], the MIC came to 1 µg/mL (≈ 2.59 µM) in data set [1] and 2 µg/mL (≈ 5.18 µM) in data set [2] (setting [4]). Besides, the Cytotoxicity in data set [3] was more than 40 µg/mL.

`CCc1ccc(OCc2cn(C[C@@]3(C)Cn4cc([N+](=O)[O-])nc4O3)nn2)cc1` [I15, (R)-2-((4-((4-Ethylphenoxy)methyl)-1H-1,2,3-triazol-1-yl)methyl)-2-methyl-6-nitro-2,3-dihydroimidazo[2,1-b]oxazole]: the MIC in data set [1] and in data set [2] (setting [4]) was 2 µg/mL (≈ 5.2 µM) in each case. This molecule registered a Cytotoxicity in data set [3] of more than 40 µg/mL.

As to `C[C@]1(Cn2cc(-c3ccc(F)cc3)nn2)Cn2cc([N+](=O)[O-])nc2O1` [I3, (R)-2-((4-(4-Fluorophenyl)-1H-1,2,3-triazol-1-yl)methyl)-2-methyl-6nitro-2,3-dihydro imidazo[2,1-b]oxazole], the values for the MIC in data set [1] and in data set [2] (setting [4]) were 2 µg/mL (≈ 5.81 µM) and 1 µg/mL (≈ 2.9 µM), respectively. In data set [3], this molecule gave a Cytotoxicity of more than 40 µg/mL.

In the case of `C[C@]1(Cn2cc(-c3ccc(F)cc3F)nn2)Cn2cc([N+](=O)[O-])nc2O1` [I5, (R)-2-((4-(2,4-Difluorophenyl)-1H-1,2,3-triazol-1-yl)methyl)-2-methyl-6-nitro-2,3-dihydroimidazo[2,1-b]oxazole], the MIC in data set [1] turned out to be 8 µg/mL (≈ 22.1 µM); in data set [2] (setting [4]) it was 1 µg/mL (≈ 2.76 µM). Further, in data set [3], the Cytotoxicity was more than 40 µg/mL.

For `C[C@]1(Cn2cc(COc3ccc(C(F)(F)F)cc3)nn2)Cn2cc([N+](=O)[O-])nc2O1` [I9, (R)-2-Methyl-6-nitro-2-((4-((4-(trifluoromethyl)phenoxy)methyl)-1H-1,2,3-triazol-1-yl)methyl)-2,3-dihydroimidazo[2,1-b]oxazole], the MIC stood at 2 µg/mL (≈ 4.71 µM) in data set [1] and 1 µg/mL (≈ 2.36 µM) in data set [2] (setting [4]). In addition, the Cytotoxicity in data set [3] is more than 40 µg/mL.

On to `Cc1cccc(OCc2cn(C[C@@]3(C)Cn4cc([N+](=O)[O-])nc4O3)nn2)c1` [I13, (R)-2-Methyl-6-nitro-2-((4-((m-tolyloxy)methyl)-1H-1,2,3-triazol-1-yl)methyl)-2,3-dihydroimidazo[2,1-b]oxazole], for which the MIC in data set [1] was 0.5 µg/mL (≈ 1.35 µM); in data set [2] (setting [4]), 0.5 µg/mL (≈ 1.35 µM); in data set [2] (read-out: MIC value) it was less than 1 µg/mL. In addition, in data set [3], the Cytotoxicity was more than 40 µg/mL.

In the case of `C[C@]1(Cn2cc(COc3ccc(Br)cc3)nn2)Cn2cc([N+](=O)[O-])nc2O1` [I11, (R)-2-((4-((4-Bromophenoxy)methyl)-1H-1,2,3-triazol-1-yl)methyl)-2-methyl-6-nitro-2,3-dihydroimidazo[2,1-b]oxazole], the MIC in data set [1] was 0.25 µg/mL (≈ 0.574 µM); in data set [2] (setting [4]), 0.12 µg/mL (≈ 0.276 µM); in data set [2] (read-out: MIC value), less than 1 µg/mL. Also, the Cytotoxicity in data set [3] was more than 40 µg/mL.

For the origin of these results see patent US9822126B1, “Substituted 1,2,3-triazol-1-yl-methyl-2,3-dihydro-2-methyl-6-nitroimidazo[2,1-b]oxazoles as anti-mycobacterial agents and a process for the preparation thereof” (priority 2014, dated 2017).
